The test system of the experiment is TBK1. Kind of experiment: Immunoblot of TBK1 phosphorylation in HCT116 cells. In kind it is cell-based, human. The note with it: HCT116 p53 wild-type and p53−/− cells; 1 μM single agents, combination 0.5 or 1 micromolar each. From the text: Antibodies recognizing phosphorylated/activated ATM (S1981, #ab81292) and DNA-PKcs (S2056, #ab18192) were purchased from Abcam Biotechnology (Cambridge, MA). Antibodies to ATM (#A1106) and DNA-PKcs (#ab1832) were from Sigma and Abcam, respectively. Phospho-KAP1 (S824, #A300-767A) and KAP1 (A700-014) antibodies were from Bethyl Labs (Montgomery, TX). Phospho-TBK1 (#5483), cGAS (#15102), and pSTING (S366, #19781S) antibodies were from Cell Signaling Technology (CST) (Danvers, MA). STING (PA5-23381) antibodies were from ThermoFisher Scientific (Waltham, MA), and actin (#A5316) antibodies were from Sigma. All antibodies were diluted 1:1000 with the exception of actin which was diluted 1:3000 in 1×TBST (1×TBS-10×TBS, (Corning, 46-012-CM), 0.05% Tween-20 (P7949) Sigma and 1% BSA. Secondary antibodies used were (a) Li-Cor method-Goat anti-Rabbit (926-3221) and Goat anti-Mouse (926-68020) Li-Cor (b) ECL method: Anti-rabbit IgG, HRP-linked (#7074S), CST.
Cells were pretreated with Compound 569 at 20, 100, 500, or 1000 nM or DMSO for 30 min and then irradiated with 0 or 10 Gy (XRAD 160, Precision X Ray) as shown in FIG. 1. In FIG. 3, cells were pretreated with Compound 569 at 1 μM, ATMi (AZD0156) at 1 μM, DNA-PKi (peposertib) at 1 μM as single agents or DMSO or with ATMi and DNA-PKi in combination at 0.5 micromolar each or at 1 micromolar each for 30 min and then irradiated with 0 or 10 Gy (XRAD 160, Precision X Ray) as shown in FIG. 1. One hour after IR, cells were lysed in RIPA buffer ([…], pH 8.0, 150 mM NaCl, 0.1% SDS, 0.5% sodium deoxycholate, 1% IGEPAL® CA-630 (Sigma, 18896) for 20 min at 4° C. in the presence of protease and phosphatase inhibitor cocktails (Roche, #04693159001 & #04906837001). Cell lysates were centrifuged at 13,200 g for 10 min at 4° C. and supernatants were analyzed for protein content using BCA assay (Pierce™ BCA Protein Assay Kit, cat #23227, ThermoFisher Waltham, MA 02451) and equal amounts of protein/lane were used for subsequent immunoblot analyses. Proteins were denatured by adding NuPAGE LSD Sample Buffer [4×] […]
A general note: Immunoblotting shows a protein as a band on a membrane.

SMILES strings stand for the structures.

Turning to `COc1ccc([C@@H](O)c2cc(-c3ncnc4cc(N5CCOCC5)ccc34)c(F)cc2Cl)nn1` [peposertib], the “phosphorylation of TBK1” value is listed as “induction of phosphorylation of TBK1”.

Regarding `CN(C)CCCOc1ccc(-c2ccc3ncc4c(c3c2)n(C2CCOCC2)c(=O)n4C)cn1` [AZD0156], the “phosphorylation of TBK1” value is given as “induction of phosphorylation of TBK1”.

The values are drawn from patent US20250268873A1, “COMBINATION OF DUAL ATM AND DNA-PK INHIBITORS AND IMMUNOTHERAPEUTIC AGENTS FOR USE IN CANCER THERAPY” (XRAD THERAPEUTICS, INC., priority 2021, published 2025).
